Patent US9127024B2 (Intrexon Corporation, priority 2013, dated 2015)
pEC50: −log10 of the molar value.

Assays:
in vivo = conditions: female, Sprague Dawley, rat, po, 10 mg/kg
Description: (§1) Female Sprague Dawley rats were fasted for at least 8 hours (overnight) prior to oral dosing of the compound via gavage (10 mg/kg; vehicle=2 mg/mL of Capryol 90/Triacetin (1:1, v/v); 3 animals/compound) and weighed prior to dosing. The correct volume of the appropriate formulation was administered based on that day's (animal) body weight. Body weight, dose volume, and dosing time was recorded for each animal. Animals were not fed for at least 4 hours following activator ligand administration.
(§2) Approximately 200 μL/blood sample was collected from the catheter sample points in EDTA tubes at each time point from each animal. The exact time of blood collection was recorded for each animal Blood samples were held at 4° C. (wet ice) starting immediately after collection and were centrifuged within 15 minutes from the collection for 12 minutes at 2500 rpm. After centrifugation, plasma samples were stored at ^−80° C. until assay. Sample times were as follows: Day 0: 0, 0.5, 1, 2, 3, 4, 6 and 8 hours; Day 1: 24 hours.
(§3) LC-MS/MS Method: Liquid chromatography tandem mass spectrometry with protein precipitation method was used to quantify the compound in rat plasma samples collected from all animals dosed with the ligand. Linearity range was from 1 ng/mL to 1000 ng/mL, with correlation coefficient for calibration curves above 0.99 and analyte quantified within ±15% of target at all calibrator concentrations.
(§4) The plasma ligand concentration was calculated by extrapolating the area under the curve values for the samples from the standard curve generated by the Analyst® software program. The ng/mL values for the plasma samples representing all the animals were used to generate the pharmacokinetic (PK) parameters.

[1] = target: RheoSwitch® (CHO-K1_RS-1 cells, firefly Luciferase reporter) (Choristoneura fumiferana, UniProt O77240); experiment: in vitro gene switch assay (fLUC Luciferase expression, potency screen); assay type: cell-based; conditions: read-out: fLUC assay EC50, 24 hours with compound, 25 μM to 2.5 pM, figure in parentheses after a value not defined
Chain of RheoSwitch® (CHO-K1_RS-1 cells, firefly Luciferase reporter) (O77240 1-513): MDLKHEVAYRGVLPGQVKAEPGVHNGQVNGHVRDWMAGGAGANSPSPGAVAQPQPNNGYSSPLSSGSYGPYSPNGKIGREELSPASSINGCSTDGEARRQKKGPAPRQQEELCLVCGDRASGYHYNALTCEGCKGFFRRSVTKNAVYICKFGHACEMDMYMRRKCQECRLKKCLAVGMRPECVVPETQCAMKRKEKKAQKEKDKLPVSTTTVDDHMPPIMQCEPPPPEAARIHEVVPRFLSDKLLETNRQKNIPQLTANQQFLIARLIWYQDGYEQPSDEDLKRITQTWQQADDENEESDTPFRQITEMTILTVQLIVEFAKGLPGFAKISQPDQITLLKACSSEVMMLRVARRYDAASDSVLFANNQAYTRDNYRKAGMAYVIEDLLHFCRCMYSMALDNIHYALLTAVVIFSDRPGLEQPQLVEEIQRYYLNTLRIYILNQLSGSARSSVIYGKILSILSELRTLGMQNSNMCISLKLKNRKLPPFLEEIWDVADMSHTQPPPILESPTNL
Description: Gene switch assays are disclosed, e.g., in U.S. Pat. Nos. 8,076,517; 7,456,315; 7,304,161; and 6,258,603.
CHO-K1 cells were stably transfected with a plasmid (RS-1, FIG. 1) coding for firefly Luciferase (fLUC) under the control of the RheoSwitch® resulting in the stable cell line CHO-K1_RS-1. A master cell bank was created containing approximately 100 vials at 5×10^6 cells per vial. One vial of CHO-K1_RS-1 was thawed and cultured for two weeks prior to each in vitro potency screening.
Twenty-four (24) hours prior to treatment with the control and test compounds the CHO-K1_RS-1 cells were seeded into white-opaque 384-well cell culture plates at 3,600 cells per well in 30 μl of culture medium. The cells were incubated in a humidified CO2 incubator at 37° C. until compound treatment.
Compounds were prepared at 25 mM in 100% dry DMSO and stored at room temperature in sealed 1 ml tubes prior to subsequent dilution and assay. On the day of cell treatment the tubes containing the control and test compounds were sorted and the ligands transferred to a 96-well polypropylene plate for subsequent dilution. The compounds were diluted in 100% dry DMSO in an 8-point, 10-fold dilution series ranging from 25 mM to 2.5 nM using the Biomek FX automated liquid handler.
The diluted compounds were then transferred to each well of 384-well polypropylene plate in quadruplicate resulting in a single 384-well plate with four replicates of each compound dilution in a different quadrant of the plate. Each well on the 384-well plate received 20 μl of diluted compound. The 384-well plates containing diluted compound and the plates containing cells in culture were loaded onto the Biomek FX and 30 nl of compound was delivered to each well containing cells using a 384-pin V&P Scientific Pin Tool. The resulting 1000-fold dilution (30 nl to 30 μl) generated a final dosing range of 25 μM to 2.5 pM in 0.1% DMSO. Two replicate plates were produced to supply a dedicated plate for the Luciferase expression assay and the APH cell viability assay.
The cells were incubated with the compound for 24 hours in a humidified CO2 incubator at 37° C. Following incubation, the cells were assayed for Luciferase expression (fLUC assay) using the Steady Glo assay from Promega. Cells were equilibrated to room temperature for 15 minutes prior to reagent addition. Thirty micro liters (30 μl) of assay reagent was added to each well of the 384-well plate using the Biomek FX. The reagent was incubated with the cells for 10-120 minutes prior to reading on a Molecular Devices Spectramax L luminometer. The assay reagents were prepared as per the manufacturer's instructions.
The Luciferase expression data was normalized to the baseline signal from cells treated with DMSO alone. The ratio of signal from treated cells to vehicle-treated cells was plotted and non-linear regress was performed using Graph Pad Prism software. EC50, (log)EC50 and Hill slope data was generated. Reporter gene expression, e.g., luciferase expression, serves as a proxy for the expression of a gene of interest. See, e.g., US 2009/0123441 and WO 2011/119773.

[2] = Pharmacokinetic (PK) study, oral gavage, plasma LC-MS/MS; conditions: female Sprague Dawley rats, oral gavage 10 mg/kg, Capryol 90/Triacetin (1:1, v/v); for AUC(0-t): AUC0−t; for Clearance: oral clearance
Description: as §1, §2, §3, §4

[3] = female, Sprague Dawley, rat, po, 10 mg/kg
[4] = female, Sprague Dawley, rat, po, 10 mg/kg, Cmax
[5] = female, Sprague Dawley, rat, po, 10 mg/kg, Tmax
[6] = female, Sprague Dawley, rat, po, 10 mg/kg, half-life
[7] = listed as Cpd. No. 59 (Lot # 1), 10 mg/kg
[8] = listed as Cpd. No. 59 (Lot # 2), 10 mg/kg

Compound | AUC(0-t) (in vivo; AUC0−t) | Cmax (in vivo; Cmax) | Tmax (in vivo; Tmax) | pEC50 [1] | AUC(0-t) [2, 3] | Cmax [2, 4] | Tmax [2, 5] | half-life [2, 6] | Clearance [2] | AUC0−t [2, 7] | Tmax [2, 7] | AUC0−t [2, 8] | Cmax [2, 8] | Tmax [2, 8] | half-life [2, 8] | Clearance [2, 7] | Clearance [2, 8]
Cc1cc(C)cc(C(=O)N(NC(=O)c2ccc3c(c2C)OCCO3)C(C)(C)C)c1 [Cpd. C] | 510 ng·h/mL | 112 ng/mL | 2.5 h |  |  |  |  |  |  |  |  |  |  |  |  |  | 
Cc1cc(C)cc(C(=O)N(NC(=O)c2ccc3c(c2F)B(O)OC3)C(C)(C)C)c1 [Cpd. No. 58, N′-(tert-butyl)-N′-(3,5-dimethylbenzoyl)-7-fluoro-1-hydroxy-1,3-dihydrobenzo[c][1,2]oxaborole-6-carbohydrazide] |  |  |  | 6.19 | 30800 ng·h/mL | 2650 ng/mL | 3 h | 15.4 h | 3.57 mL/min/kg |  |  |  |  |  |  |  | 
CC[C@@H](N(NC(=O)c1ccc2c(c1F)B(O)OC2)C(=O)c1cc(C)cc(C)c1)C(C)(C)C [Cpd. No. 59, (R)—N′-(3,5-dimethylbenzoyl)-N′-(2,2-dimethylpentan-3-yl)-7-fluoro-1-hydroxy-1,3-dihydrobenzo[c][1,2]oxaborole-6-carbohydrazide] |  |  |  | 6.97 |  | 11200 ng/mL |  | 5.2 h |  | 127700 ng·h/mL | 5 h | 300721 ng·h/mL | 18833 ng/mL | 1.8 h | 10.0 h | 1.4 mL/min/kg | 0.538 mL/min/kg
CC[C@@H](N(NC(=O)c1ccc2c(c1F)COB2O)C(=O)c1cc(C)cc(C)c1)C(C)(C)C [Cpd. No. 67, (R)—N′-(3,5-dimethylbenzoyl)-N′-(2,2-dimethylpentan-3-yl)-4-fluoro-1-hydroxy-1,3-dihydrobenzo[c][1,2]oxaborole-5-carbohydrazide] |  |  |  | 6.51 | 24500 ng·h/mL | 3320 ng/mL | 3 h | 5.5 h | 6.63 mL/min/kg |  |  |  |  |  |  |  | 
